Measured values published in US10441557B2, “Germicidal compositions comprising carboxylic acid mixture and use as topical disinfectants” (priority 2012, dated 2019).

Test: Freeze-thaw stability of concentrates
Assay type: physicochemical
Method: In this example, concentrates according to the present invention were prepared comprising various surfactants and the effect of those surfactants on the freeze-thaw stability of the samples was determined. The concentrates were prepared for an intended dilution ratio of 1 part concentrate to 39 parts water. Each formulation tested comprised 9.2 wt. % formic acid, 9.4 wt. % lactic acid, 23.2 wt. % sodium α-olefin sulfonate (SAOS), and 21 wt. % of the indicated surfactant, with water comprising the balance.
The samples of each formulation were placed in bottles filled to 1.5 inches from the top of the bottles. The bottles containing the samples were placed in a freezer for one day, and removed from the freezer and thawed the subsequent day. The homogeneity of each sample upon thawing was noted. A formulation was considered acceptable if a homogeneous solution was observed upon thawing.

Cocamidopropylbetaine
Physical Stability After 1 Freeze-Thaw Cycle: Non-homogeneous
